{"source": "patent US11471425B2", "about": "“Pharmaceutical composition containing broussochalcone a as active ingredient for treatment of inflammatory bowel disease” (BIOPHARMARESEARCHLAB CO., LTD., priority 2017, dated 2022)", "key": {"[1]": {"test_system": "ulcerative colitis-induced mice", "experiment": "Disease activity index (DAI) in DSS-induced ulcerative colitis mice", "type": "in vivo, C57BL/6J mice", "settings": "3% (w/v) DSS in drinking water from day 3; specimen orally at 100 μl/10 g bw; compared with control group", "experimental": "The normal group received a mixture of 9 ml of Koliphor EL (Sigma, USA) and 1 ml of DMSO at the same dose as the BA experimental group. The normal group was allowed to access water ad libitum during the experimental period.\nThe control group received a mixture of 9 ml of Koliphor EL (Sigma, USA) and 1 ml of DMSO at the same dose as the BA experimental group.\nDuring the experimental period, the mice were caused to defecate once a day. Feces appearance was observed and fecal occult blood was observed using the Beckman Coulter Hemoccult Single Slides (Beckman Coulter, Inc., USA). The observation results were expressed in scores according to the criteria in Table 2.\nDisease activity index (DAI)=(Fecal consistency+fecal color)/2"}, "[2]": {"test_system": "ulcerative colitis-induced mice", "experiment": "Colon length in DSS-induced ulcerative colitis mice", "type": "in vivo, C57BL/6J mice", "settings": "3% (w/v) DSS from day 3; oral 100 μl/10 g bw; colon extracted on day 11", "experimental": "(§1) On day 11, the mice were sacrificed by intraperitoneal injection of Alfaxan (Jurox Pty Limited, Australia), and then the colon, which ranges from the cecum site to the site immediately before the anus, was extracted. After all colonic contents in the colon tissues were removed, some specimens were fixed in 4% (v/v) paraformaldehyde fixative for use as pathological specimens, and the other specimens were stored frozen at −80° C. for molecular biological analysis."}, "[3]": {"experiment": "Changes in body weight of ulcerative colitis-induced mice", "type": "in vivo, C57BL/6J mice", "settings": "3% (w/v) DSS from day 3; oral 100 μl/10 g bw; measured daily from day 0", "experimental": "Since ulcerative colitis-induced animals lose weight, a symptom-alleviating effect was checked by measuring changes in body weight.\nFor the respective normal group, control group, positive control group, and BA experimental group prepared in Example 1, the body weight was measured using a precision balance at the start of the experiment (day 0), and changes in body weight were measured at daily intervals for comparison."}, "[4]": {"test_system": "myeloperoxidase (MPO)", "experiment": "Myeloperoxidase (MPO) activity in colon tissues of ulcerative colitis-induced mice", "type": "in vivo, C57BL/6J mice", "settings": "colon tissue, day 11; absorbance at 412 nm, average of three measurements", "experimental": "as §1\nFor the mice for which ulcerative colitis had been induced by DSS, activity of MPO, an inflammatory indicator, was checked.\nThe colon tissues stored frozen in Example 3 were analyzed using the […] Colorimetric Activity Assay Kit (Sigma, USA), in which absorbance at a wavelength of 412 nm was measured three times to calculate an average value."}, "[5]": {"test_system": "colon tissues of ulcerative colitis-induced mice", "experiment": "Histological analysis (H&E staining) of colon tissues of ulcerative colitis-induced mice", "type": "in vivo, C57BL/6J mice", "settings": "4 μm paraffin sections, colon extracted on day 11", "experimental": "as §1\nThe colon tissues stored frozen in Example 3 were fixed in 4% paraformaldehyde for 48 hours and then washed with PBS. The fixed tissues were embedded in paraffin, cut into 4 μm thickness, and stained with hematoxylin and eosin. Then, the stained tissues were observed under a microscope."}, "[6]": {"settings": "mouse, in vivo, po", "source_text": "(§2) In addition, changes in body weight and food intake were observed by measuring the body weight and food intake at daily intervals from the start (day 0) to the end (day 11) of the animal experiment.\n(§3) 7-Week-old C57BL/6J mice were purchased from Central Lab. Animal Inc. (Seoul, Korea) and acclimatized for 7 days to an experimental environment, which was maintained at constant humidity and constant temperature under a 12-hour light/dark cycle, while allowing them to access solid feed and water ad libitum. After 7 days of acclimatization period, the mice were divided into normal group, control group, positive control group (sulfasalazine), and BA experimental group (broussochalcone A) (Table 1).\n(§4) Sulfasalazine (Sigma, USA) was quantified at 150 mg and dissolved in 1 ml of DMSO to prepare an SUL solution. 9 ml of Koliphor EL was diluted in PBS to prepare a 10% (v/v) Koliphor solution. The SUL solution was mixed with 9 ml of 10% (v/v) Koliphor solution to prepare an SUL specimen. Then, the SUL specimen was quantified and orally administered at 100 μl/10 g·body weight (bw) to the positive control group. […]\n(§5) Broussochalcone A (Natural Products Bank, Korea) was quantified at 20 mg and dissolved in 1 ml of DMSO to prepare a BA solution. […] Then, the BA specimen was quantified and orally administered at 100 μl/10 g·body weight (bw) to the BA experimental group. […]"}, "[7]": {"experiment": "Food intake by ulcerative colitis-induced mice", "settings": "3% (w/v) DSS from day 3; oral 100 μl/10 g bw; measured daily, day 0 to day 11", "source_text": "as §2, §3, §4, §5"}}, "note": "Like-named read-outs stand apart in the source and are kept apart here.", "data": [{"smiles": "O=C(O)c1cc(/N=N/c2ccc(S(=O)(=O)Nc3ccccn3)cc2)ccc1O", "note": "[sulfasalazine, Sulfasalazine]", "values": [{"measurement": "Disease activity index (DAI) = (fecal consistency + fecal color)/2", "setting": "[1]", "value": "high DAI"}, {"measurement": "colon length shorter than that of the normal group", "setting": "[2]", "value": "about 2.8 cm"}, {"measurement": "decrease in body weight", "setting": "[3]", "value": "about 20%"}, {"measurement": "increase in MPO activity as compared with the normal group", "setting": "[4]", "value": "about 1.5 fold"}, {"measurement": "histological changes in colon tissue: goblet cells and surface epithelium", "setting": "[5]", "value": "had lost goblet cells and surface epithelium"}, {"measurement": "histological changes in colon tissue: immune cell penetration", "setting": "[5]", "value": "many immune cells had penetrated the colon tissues"}, {"measurement": "histological changes in colon tissue: structure of the mucosa", "setting": "[5]", "value": "the structure of the mucosa was partially maintained"}, {"measurement": "food intake compared with the normal group", "setting": "[6]", "value": "a decrease in food intake"}]}, {"smiles": "CC(C)=CCc1cc(C(=O)/C=C/c2ccc(O)c(O)c2)c(O)cc1O", "note": "[broussochalcone A]", "values": [{"measurement": "Disease activity index (DAI) = (fecal consistency + fecal color)/2", "setting": "[1]", "value": "lower DAI than the control group"}, {"measurement": "colon length compared with the normal group (in words)", "setting": "[2]", "value": "colon length similar to that of the normal group"}, {"measurement": "decrease in body weight", "setting": "[3]", "value": "about 5%"}, {"measurement": "MPO activity as compared with the normal group (in words)", "setting": "[4]", "value": "did not exhibit significantly different MPO activity as compared with the normal group"}, {"measurement": "histological changes in colon tissue: structure of the mucosa", "setting": "[5]", "value": "the structure of the mucosa was maintained"}, {"measurement": "food intake compared with the normal group", "setting": "[7]", "value": "an increase in food intake as compared with the normal group"}]}]}
